Read-outs that look alike come from different tables or passages of the source.
Key:
cCaSR [1] = conditions: for EC50 Ago (M): Supplementary Table I, dash = no activity
cCaSR [2] = test: cCaSR PAM luminescence assay, double injection with 0.5 mM CaCl2, HEK293/T-REx/natClytin-cCaSR; conditions: Supplementary Table I, PAM assay, dash = no activity
hCaSR = target: T1, hCaSR (Homo sapiens, UniProt P41180); test: hCaSR transiently expressed in HEK293/natClytin, agonist luminescence assay; format: cell-based
T1 construct: expressed in transfected cells; host or cells: HEK293/natClytin (transient, pcDNA6 as delivered by GeneArt)
T1 sequence (P41180 20-1078): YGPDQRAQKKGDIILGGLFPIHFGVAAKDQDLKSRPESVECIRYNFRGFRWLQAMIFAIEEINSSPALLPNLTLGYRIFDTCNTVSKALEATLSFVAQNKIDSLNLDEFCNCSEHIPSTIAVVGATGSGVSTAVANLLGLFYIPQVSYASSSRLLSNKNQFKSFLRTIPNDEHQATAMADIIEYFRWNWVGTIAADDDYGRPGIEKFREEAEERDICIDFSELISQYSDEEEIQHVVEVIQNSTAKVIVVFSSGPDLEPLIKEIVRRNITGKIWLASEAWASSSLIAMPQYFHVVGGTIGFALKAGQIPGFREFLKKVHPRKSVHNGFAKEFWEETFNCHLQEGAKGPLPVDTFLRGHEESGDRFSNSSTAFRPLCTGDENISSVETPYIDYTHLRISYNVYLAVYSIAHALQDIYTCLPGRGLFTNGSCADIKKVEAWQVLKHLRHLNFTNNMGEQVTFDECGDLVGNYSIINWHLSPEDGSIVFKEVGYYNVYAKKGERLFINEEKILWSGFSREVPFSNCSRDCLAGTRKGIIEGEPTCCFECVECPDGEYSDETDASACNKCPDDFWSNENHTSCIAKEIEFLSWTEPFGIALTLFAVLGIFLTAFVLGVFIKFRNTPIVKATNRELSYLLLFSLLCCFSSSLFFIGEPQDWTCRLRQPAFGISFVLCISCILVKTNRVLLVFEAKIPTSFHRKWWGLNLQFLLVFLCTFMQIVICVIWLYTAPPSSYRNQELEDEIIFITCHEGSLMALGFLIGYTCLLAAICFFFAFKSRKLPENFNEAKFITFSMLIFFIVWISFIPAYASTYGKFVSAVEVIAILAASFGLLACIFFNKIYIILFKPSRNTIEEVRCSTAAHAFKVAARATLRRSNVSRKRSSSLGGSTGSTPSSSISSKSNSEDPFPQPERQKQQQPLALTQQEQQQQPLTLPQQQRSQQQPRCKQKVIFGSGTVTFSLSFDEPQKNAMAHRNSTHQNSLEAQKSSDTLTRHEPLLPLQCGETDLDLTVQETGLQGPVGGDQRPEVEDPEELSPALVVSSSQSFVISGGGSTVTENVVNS
Description: (§1) The coding sequence of the Felis catus[52] and Homo sapiens[53] CaSR gene was synthesised by GeneArt (Thermo Fisher Scientific). The cat coding sequence was excised from the GeneArt construct and inserted in pcDNA3.1 for constitutive and transient expression or pcDNA5/ TO for inducible expression. For the human sequence the pcDNA6 vector as delivered by GeneArt was used without further sub-cloning.
(§2) All transient transfections were performed with Lipofectamine 2000 (Invitrogen) according to the manufacturer’s protocol.

cCaSR [3] = test: cCaSR transiently expressed in HEK293/natClytin, agonist luminescence assay; format: cell-based, Felis catus; conditions: transiently expressed cCaSR; > 3 mM = maximal response not reached
Description: as §1, §2

cCaSR [4] = target: T2, cCaSR (Felis catus, UniProt C7FF08); test: cell-based
T2 sequence (C7FF08 1-1081): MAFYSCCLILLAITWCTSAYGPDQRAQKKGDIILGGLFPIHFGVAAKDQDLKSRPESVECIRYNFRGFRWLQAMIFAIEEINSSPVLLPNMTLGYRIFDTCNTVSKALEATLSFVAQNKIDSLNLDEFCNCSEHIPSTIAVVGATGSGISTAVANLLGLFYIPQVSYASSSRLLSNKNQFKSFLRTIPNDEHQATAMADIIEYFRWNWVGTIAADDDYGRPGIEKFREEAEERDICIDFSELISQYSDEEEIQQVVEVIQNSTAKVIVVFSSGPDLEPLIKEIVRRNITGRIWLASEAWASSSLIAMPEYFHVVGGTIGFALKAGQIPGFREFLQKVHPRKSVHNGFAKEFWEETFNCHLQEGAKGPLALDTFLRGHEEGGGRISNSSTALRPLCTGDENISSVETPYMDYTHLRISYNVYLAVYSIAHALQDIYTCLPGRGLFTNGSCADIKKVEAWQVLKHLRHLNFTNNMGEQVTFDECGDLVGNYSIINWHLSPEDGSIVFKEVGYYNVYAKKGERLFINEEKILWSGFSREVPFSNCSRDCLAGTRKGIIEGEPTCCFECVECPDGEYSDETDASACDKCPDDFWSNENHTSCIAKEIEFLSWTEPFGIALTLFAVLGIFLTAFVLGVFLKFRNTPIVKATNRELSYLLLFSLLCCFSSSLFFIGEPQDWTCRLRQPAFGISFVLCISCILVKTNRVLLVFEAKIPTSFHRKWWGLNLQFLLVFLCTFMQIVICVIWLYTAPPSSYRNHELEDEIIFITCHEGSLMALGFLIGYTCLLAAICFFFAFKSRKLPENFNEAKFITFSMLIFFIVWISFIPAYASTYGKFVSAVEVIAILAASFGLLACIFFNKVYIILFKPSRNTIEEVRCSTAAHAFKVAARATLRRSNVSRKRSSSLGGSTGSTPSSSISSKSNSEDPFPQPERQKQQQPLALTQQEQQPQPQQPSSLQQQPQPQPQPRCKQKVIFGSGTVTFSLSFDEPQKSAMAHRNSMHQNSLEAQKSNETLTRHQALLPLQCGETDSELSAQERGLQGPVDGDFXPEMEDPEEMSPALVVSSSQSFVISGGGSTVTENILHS

cCaSR [5] = target: T2, cCaSR
cCaSR [6] = target: T2, cCaSR; test: cCaSR PAM luminescence assay, double injection with 0.5 mM CaCl2, HEK293/T-REx/natClytin-cCaSR; conditions: Supplementary Table I, PAM assay, dash = no activity
cCaSR [7] = target: T2, cCaSR; test: cCaSR transiently expressed in HEK293/natClytin, agonist luminescence assay; format: cell-based
Description: as §1, §2

[8] = target: domestic cat Calcium Sensing Receptor (cCaSR) (Felis catus)
[9] = target: domestic cat Calcium Sensing Receptor (cCaSR) (Felis catus); remark: listed apart in the source
[10] = transiently expressed hCaSR, > 3 mM = maximal response not reached, read-out: hCaSR EC50
[11] = read-out: cCaSR activity, agonist assay, stable inducible cCaSR line, at least three wells
[12] = EC50 (M), agonist assay, stable inducible cCaSR line, > 0.01 M = maximal response not reached
[13] = EC50 Ago (M), Supplementary Table I, agonist assay, > 0.01 M = maximal response not reached
[14] = cCaSR activity, agonist assay, stable inducible cCaSR line, at least three wells
[15] = transiently expressed cCaSR, > 3 mM = maximal response not reached, read-out: cCaSR EC50
[16] = EC50 Value (heat map Fig. 5), cCaSR agonists, heat map
[17] = cCaSR stable EC50(mM), stably expressed cCaSR, Fig. 6b, > 3 mM = maximal response not reached

Molecule | EC50 (hCaSR; [10]) [mM] | EC50 (cCaSR [4]; [12]) [M] | EC50 (cCaSR [4]; [14]) [M] | EC50 PAM (M) (cCaSR [6]) | EC50 (cCaSR [7]; [15]) [mM] | EC50 (cCaSR [4]; [17]) [M] | EC50 (cCaSR [4]; [13]) [M] | other results
CNc1ccc2oc(C[C@@H]3OC4(CC[C@@H]3C)O[C@H](C(C)C(=O)c3ccc[nH]3)[C@H](C)C[C@H]4C)nc2c1C(=O)O (some centres unmarked) [Calcium Ionophore, reference compound] |  |  |  |  |  |  |  | EC50 Ago (M) (cCaSR [1]; agonist assay): -; EC50 PAM (M) (cCaSR [2]): -
CN[C@@H]1[C@@H](O)[C@@H](O[C@@H]2[C@@H](O)[C@H](O[C@H]3O[C@H]([C@@H](C)O)[C@@H](O)[C@H](O)[C@H]3N)[C@@H](N)C[C@H]2N)OC[C@]1(C)O [Geneticin, reference compound] | 3.6 |  |  |  |  |  |  | EC50 Ago (M) (cCaSR [1]; agonist assay): -; EC50 (cCaSR [1]; [11]): > 10 mM; EC50 (cCaSR [1]; read-out: cCaSR stable EC50, […], > 3 mM = maximal response not reached): 1.1 mM; EC50 PAM (M) (cCaSR [2]): -; EC50 (cCaSR [3]): 3 mM
N[C@@H](CC(=O)O)C(=O)O [L-Aspartic acid] | 11.9 | 0.00411 | 0.001 to 0.01 | - | 11.8 |  | 0.00411 | agonist activity on cCaSR (in words) (cCaSR [5]): strong agonist activity
N[C@@H](CCC(=O)O)C(=O)O [L-Glutamic acid] | > 3 |  | > 0.01 | - | > 3 |  | 0.00916 | EC50 (cCaSR [4]; [16]): 0.00903 M; EC50 (cCaSR [4]; cCaSR stable EC50(mM), […], > 3 mM = maximal response not reached): > 0.003 M; agonist activity on cCaSR (in words) (cCaSR [5]): strong agonist activity
NCCCCNCCCN [Spermidine] |  | 0.00249 | 0.001 to 0.01 | - |  | 0.0023 | 0.0025 | EC50 (hCaSR): 1.3 mM; agonist activity on cCaSR (in words) (cCaSR [5]): agonists; EC50 (cCaSR [7]): 1.1 mM
Poly-L-arginine |  |  |  | - |  |  |  | hCaSR EC50 (hCaSR; transiently expressed hCaSR): 2.5 µg/mL; cCaSR stable EC50 (cCaSR [5]): 8.0 µg/mL; EC50 (cCaSR [5]; agonist assay, stable inducible cCaSR line, > 0.01 M = maximal response not reached): 0.00101 mM; EC50 (cCaSR [5]; read-out: EC50 Ago, Supplementary Table I, agonist assay, > 0.01 M = maximal response not reached): 0.00101 mM; EC50 (cCaSR [5]; [11]): < 1 mM; cCaSR EC50 (cCaSR [7]; transiently expressed cCaSR): 2.9 µg/mL
Poly-L-arginine (peptide) |  |  |  |  |  |  |  | EC50 for cCaSR (stably and transiently expressed) against the EC50 for hCaSR, luminescence dose response in HEK293/natClytin cells [8]: 2.5 fold; EC50 of agonist activity, luminescence (natClytin) in HEK T-Rex/natClytin cells inducibly expressing cCaSR, calcium-free buffer; activity grade +++ [9]: 0.00101 mM

More lines, main results first:

EC50 (hCaSR; [10]) [mM] | EC50 (cCaSR [4]; [12]) [M] | EC50 (cCaSR [4]; [14]) [M] | EC50 PAM (M) (cCaSR [6]) | EC50 (cCaSR [7]; [15]) [mM] | EC50 (cCaSR [4]; [17]) [M] | Molecule | EC50 (cCaSR [4]; [13]) [M] | other results
> 3 |  |  |  | > 3 | > 0.003 | NCCCCN [Putrescine] |  | 
0.16 |  |  |  | 0.28 | 4e-05 | NC[C@H]1O[C@H](O[C@H]2[C@H](O)[C@@H](O[C@H]3O[C@H](CO)[C@@H](O)[C@H](N)[C@H]3O)[C@H](N)C[C@@H]2N)[C@H](N)C[C@@H]1O [Tobramycin, reference compound] |  | EC50 Ago (M) (cCaSR [5]; Supplementary Table I, agonist assay, dash = no activity): -
> 3 | 0.00265 | 0.001 to 0.01 | - | > 3 | > 0.003 | CC[C@H](NC(=O)CC[C@H](N)C(=O)O)C(=O)NCC(=O)O [γ-Glu-Abu-Gly] |  | 
> 3 |  | > 0.01 | - | > 3 | > 0.003 | C[C@H](NC(=O)CC[C@H](N)C(=O)O)C(=O)O [γ-Glu-Ala] |  | EC50 (cCaSR [4]; [16]): 0.00295 M
4.1 | 0.00422 |  | - | 3.6 | 0.0069 | CC(C)[C@H](NC(=O)CC[C@H](N)C(=O)O)C(=O)NCC(=O)O [γ-Glu-Val-Gly] |  | 
> 3 | 0.00452 | 0.001 to 0.01 | - | > 3 | > 0.003 | CC(C)[C@H](NC(=O)CC[C@H](N)C(=O)O)C(=O)O [γ-Glu-Val] | 0.00452 | 

— publication PMC8131363 (Scientific Reports, 2021)
